In patent US10253185B2, “Fluorogenic pH-sensitive dyes and their methods of use (II)” (LIFE TECHNOLOGIES CORPORATION, priority 2012, dated 2019):

How the values were obtained:
[1] = test system: cells; experiment: Intracellular pH response of dye-loaded cells under perfusion with pH standards (nigericin/valinomycin); type: cell-based; conditions: 5 μM loading; potassium LCIS pH standards 7.4, 7.2, 6.5, 6.0; nigericin and valinomycin 10 μM each
Protocol: 10 mL loading buffer, Compound (4): 10 μL Compound (4) from a 5 mM DMSO stock was added to 100 μL Powerload and mixed. 10 mL LCIS was added to this solution for final concentration of Compound (4) of 5 μM.
Cells were cultured on 35 mm MatTek glass bottom dishes. For loading, cells were rinsed 1× with LCIS and replaced with loading buffer described above. Cells were incubated at 37° C. for 60 minutes, then rinsed 2× with LCIS and imaged with standard TRITC or FITC filter sets. (see FIG. 5).
Cells were cultured and loaded as described above with Compound (4). This solution was removed from the cells and replaced with potassium LCIS pH 7.4 standard and imaging experiments begun with cells under constant perfusion by potassium LCIS pH standards of pH 7.4, 7.2, 6.5, and 6.0. […] (Nigericin and valinomycin added at 10 μM each from DMSO stock.) Images of Compound (4) AM loaded cells at pH 7.4 and 6.0 are shown in FIG. 6. Functional kinetic responses from individually selected cells in the sample are shown in FIG. 7 as the pH was changed from 7.4 to 6.0 and back.

[2] = test system: J774.2 murine macrophages; experiment: No-wash phagocytosis assay with E. coli bioparticles conjugated to pH-sensitive dye; type: cell-based; conditions: E. coli bioparticle-dye conjugates, J774.2 macrophages
Source text: Certain embodiments provide a no-wash, no-quench assay for phagocytosis that is based on fluorogenic bioparticles comprising the pH-sensitive fluorescent dye compounds provided herein. Current protocols for measuring phagocytosis that use fluorescent bioparticles, require a trypan blue quenching step and several washing steps. These steps can introduce significant variability in the assay. To address this issue, provided herein is a no-wash phagocytosis kit, using E. coli bioparticles conjugated to a pH-sensitive fluorescent dye as described herein. These bioparticle conjugates are weakly fluorescent at extracellular pH. […] The pH-sensitive fluorescent bioparticles described herein may be used in plate based, as well as imaging and flow cytometry assays of phagocytosis.

| Molecule | signal from the dye inside of the cells as external pH changed [1] | uptake of the bioparticles (phagocytosis) [2] |
| --- | --- | --- |
| CCN(CCCC(=O)NCCCCC(C(=O)OCOC(C)=O)N(CC(=O)OCOC(C)=O)CC(=O)OCOC(C)=O)c1cc(OC)c(-c2c3ccc(=[N+](C)C)cc-3oc3cc(N(C)C)ccc23)cc1N(C)C (centres unmarked) [Compound (4), N-(9-(4-((8-(2-(acetoxymethoxy)-2-oxoethyl)-9-((acetoxymethoxy)carbonyl)-2,6,15-trioxo-3,5-dioxa-8,14-diazaoctadecan-18-yl)(ethyl)amino)-5-(dimethylamino)-2-methoxyphenyl)-6-(dimethylamino)-3H-xanthen-3-ylidene)-N-methylmethanaminium] | the signal from the dye inside of the cells changed | – |
| cytochalaisin D | – | potently inhibited |
